Data as given in PubChem BioAssay AID1963965 (Molecular Pharmacology Branch, DTP, NCI, 2024).
pIC50: −log10 of the molar value.

System: 996289-038-R-J1-PDC spheroid viability
Experiment: Anticancer human tumor 996289-038-R-J1-PDC patient-derived colon adenocarcinoma cell line growth inhibition [PI3K]
Conditions: spheroids with HUVEC and MSC; for pIC50: curve of first compound; for viability, T/C: stronger effect = lower value
Method in brief: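 High-throughput combination screen: PI3K inhibitors crossed with targeted small molecules on complex spheroids of tumor cells, HUVEC and MSCs at 37 degrees C, 5% CO2. Top concentration was at or near clinical Cmax (otherwise 10 microM), with half-log decrements.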

[1] = second compound 0.0316 µM, first compound 0.0316 µM
[2] = second compound 0.0316 µM, first compound 0.1 µM
[3] = second compound 0.0316 µM, first compound 0.316 µM
[4] = second compound 0.0316 µM, first compound 1 µM
[5] = second compound 0.0316 µM, first compound 3.16 µM
[6] = second compound 0.0316 µM, first compound 10 µM
[7] = second compound 0.1 µM, first compound 0.0316 µM
[8] = second compound 0.1 µM, first compound 0.1 µM
[9] = second compound 0.1 µM, first compound 0.316 µM
[10] = second compound 0.1 µM, first compound 1 µM
[11] = second compound 0.1 µM, first compound 3.16 µM
[12] = second compound 0.1 µM, first compound 10 µM
[13] = second compound 0.316 µM, first compound 0.0316 µM
[14] = second compound 0.316 µM, first compound 0.1 µM
[15] = second compound 0.316 µM, first compound 0.316 µM
[16] = second compound 0.316 µM, first compound 1 µM
[17] = second compound 0.316 µM, first compound 3.16 µM
[18] = second compound 0.316 µM, first compound 10 µM
[19] = second compound 1 µM, first compound 0.0316 µM
[20] = second compound 1 µM, first compound 0.1 µM
[21] = second compound 1 µM, first compound 0.316 µM
[22] = second compound 1 µM, first compound 1 µM
[23] = second compound 1 µM, first compound 3.16 µM
[24] = second compound 1 µM, first compound 10 µM
[25] = second compound 3.16 µM, first compound 0.0316 µM
[26] = second compound 3.16 µM, first compound 0.1 µM
[27] = second compound 3.16 µM, first compound 0.316 µM
[28] = second compound 3.16 µM, first compound 1 µM
[29] = second compound 3.16 µM, first compound 3.16 µM
[30] = second compound 3.16 µM, first compound 10 µM
[31] = second compound 10 µM, first compound 0.0316 µM
[32] = second compound 10 µM, first compound 0.1 µM
[33] = second compound 10 µM, first compound 0.316 µM
[34] = second compound 10 µM, first compound 1 µM
[35] = second compound 10 µM, first compound 3.16 µM
[36] = second compound 10 µM, first compound 10 µM
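Further: spheroids exposed to compounds for seven days before viability read.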
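Wherever viability, T/C is given: luminescence used as a proxy for viable cell amount; percent viability relative to DMSO vehicle control as 100%.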

## CC(C)NCC(C(=O)N1CCN(c2ncnc3c2C(C)CC3O)CC1)c1ccc(Cl)cc1 (stereo unspecified) + CC(Nc1ncnc2nc[nH]c12)c1cc2cccc(Cl)c2c(=O)n1-c1ccccc1
Second compound 0.0316 µM
  pIC50: < 5.00
Second compound 0.1 µM
  pIC50: < 5.00
Second compound 0.316 µM
  pIC50: < 5.00
Second compound 1 µM
  pIC50: < 5.00
Second compound 3.16 µM
  pIC50: < 5.00
Second compound 10 µM
  pIC50: < 5.00
[1]
  viability, T/C: 86.1%
[2]
  viability, T/C: 80.3%
[3]
  viability, T/C: 100%
[4]
  viability, T/C: 94.1%
[5]
  viability, T/C: 87.4%
[6]
  viability, T/C: 75.1%
[7]
  viability, T/C: 96.5%
[8]
  viability, T/C: 96.8%
[9]
  viability, T/C: 89.9%
[10]
  viability, T/C: 94.7%
[11]
  viability, T/C: 87.1%
[12]
  viability, T/C: 69.4%
[13]
  viability, T/C: 94.9%
[14]
  viability, T/C: 93.8%
[15]
  viability, T/C: 95.2%
[16]
  viability, T/C: 90%
[17]
  viability, T/C: 92.2%
[18]
  viability, T/C: 72.3%
[19]
  viability, T/C: 86.4%
[20]
  viability, T/C: 92.3%
[21]
  viability, T/C: 90.8%
[22]
  viability, T/C: 77.8%
[23]
  viability, T/C: 101%
[24]
  viability, T/C: 74.9%
[25]
  viability, T/C: 88.1%
[26]
  viability, T/C: 85%
[27]
  viability, T/C: 85.4%
[28]
  viability, T/C: 94.7%
[29]
  viability, T/C: 94.9%
[30]
  viability, T/C: 68.6%
[31]
  viability, T/C: 88.8%
[32]
  viability, T/C: 78.7%
[33]
  viability, T/C: 85.5%
[34]
  viability, T/C: 84.2%
[35]
  viability, T/C: 101%
[36]
  viability, T/C: 56.2%

## C=CC(=O)N1CCN(c2nc(=O)n(-c3c(C)ccnc3C(C)C)c3nc(-c4c(O)cccc4F)c(F)cc23)C(C)C1 (stereo unspecified) + COc1c(OCCCN2CCOCC2)ccc2c3n(c(=NC(=O)c4cnc(N)nc4)nc12)CCN3
Second compound 0.00316 µM
  pIC50: < 5.00
Second compound 0.01 µM
  pIC50: < 5.00
Second compound 0.0316 µM
  pIC50: < 5.00
Second compound 0.1 µM
  pIC50: < 5.00
Second compound 0.316 µM
  pIC50: > 7.50
Second compound 1 µM
  pIC50: > 7.50
Second compound 0.00316 µM, first compound 0.0316 µM
  viability, T/C: 99.8%
Second compound 0.00316 µM, first compound 0.1 µM
  viability, T/C: 99.1%
Second compound 0.00316 µM, first compound 0.316 µM
  viability, T/C: 118%
Second compound 0.00316 µM, first compound 1 µM
  viability, T/C: 129%
Second compound 0.00316 µM, first compound 3.16 µM
  viability, T/C: 137%
Second compound 0.00316 µM, first compound 10 µM
  viability, T/C: 104%
Second compound 0.01 µM, first compound 0.0316 µM
  viability, T/C: 99.8%
Second compound 0.01 µM, first compound 0.1 µM
  viability, T/C: 92.7%
Second compound 0.01 µM, first compound 0.316 µM
  viability, T/C: 108%
Second compound 0.01 µM, first compound 1 µM
  viability, T/C: 99.9%
Second compound 0.01 µM, first compound 3.16 µM
  viability, T/C: 106%
Second compound 0.01 µM, first compound 10 µM
  viability, T/C: 109%
[1]
  viability, T/C: 82.6%
[2]
  viability, T/C: 88.3%
[3]
  viability, T/C: 85.4%
[4]
  viability, T/C: 81.5%
[5]
  viability, T/C: 90.7%
[6]
  viability, T/C: 85.6%
[7]
  viability, T/C: 60.7%
[8]
  viability, T/C: 52.7%
[9]
  viability, T/C: 62.5%
[10]
  viability, T/C: 74.3%
[11]
  viability, T/C: 70.8%
[12]
  viability, T/C: 71.9%
[13]
  viability, T/C: 37.7%
[14]
  viability, T/C: 42.5%
[15]
  viability, T/C: 38.2%
[16]
  viability, T/C: 42%
[17]
  viability, T/C: 48.2%
[18]
  viability, T/C: 40.5%
[19]
  viability, T/C: 21%
[20]
  viability, T/C: 22.6%
[21]
  viability, T/C: 20.4%
[22]
  viability, T/C: 22%
[23]
  viability, T/C: 23.3%
[24]
  viability, T/C: 20.7%

## CC1(C)CCC(CN2CCN(c3ccc(C(=O)NS(=O)(=O)c4ccc(NCC5CCOCC5)c([N+](=O)[O-])c4)c(Oc4cnc5[nH]ccc5c4)c3)CC2)=C(c2ccc(Cl)cc2)C1 + Cc1nc(NC(=O)N2CCCC2C(N)=O)sc1-c1ccnc(C(C)(C)C(F)(F)F)c1
Second compound 0.0316 µM
  pIC50: 5.01
Second compound 0.1 µM
  pIC50: 5.06
Second compound 0.316 µM
  pIC50: 5.08
Second compound 1 µM
  pIC50: 5.21
Second compound 3.16 µM
  pIC50: 5.32
Second compound 10 µM
  pIC50: > 7.50
[1]
  viability, T/C: 94%
[2]
  viability, T/C: 91.8%
[3]
  viability, T/C: 105%
[4]
  viability, T/C: 110%
[5]
  viability, T/C: 96.9%
[6]
  viability, T/C: 49.3%
[7]
  viability, T/C: 95.2%
[8]
  viability, T/C: 102%
[9]
  viability, T/C: 88.1%
[10]
  viability, T/C: 102%
[11]
  viability, T/C: 105%
[12]
  viability, T/C: 42.8%
[13]
  viability, T/C: 88.8%
[14]
  viability, T/C: 84.9%
[15]
  viability, T/C: 95.9%
[16]
  viability, T/C: 93.2%
[17]
  viability, T/C: 92.5%
[18]
  viability, T/C: 42.1%
[19]
  viability, T/C: 68.6%
[20]
  viability, T/C: 83.4%
[21]
  viability, T/C: 67.8%
[22]
  viability, T/C: 82.6%
[23]
  viability, T/C: 75.8%
[24]
  viability, T/C: 31.6%
[25]
  viability, T/C: 66.3%
[26]
  viability, T/C: 60.9%
[27]
  viability, T/C: 60.4%
[28]
  viability, T/C: 61%
[29]
  viability, T/C: 62.6%
[30]
  viability, T/C: 29.3%
[31]
  viability, T/C: 34.9%
[32]
  viability, T/C: 41.8%
[33]
  viability, T/C: 42.2%
[34]
  viability, T/C: 54.4%
[35]
  viability, T/C: 45.1%
[36]
  viability, T/C: 15.4%
